Data taken from patent US20120060243A1, “Herbicide-Resistant AHAS-Mutants and Methods of Use” (priority 2008, published 2012).
Read-outs that look alike come from different tables or passages of the source.

Assays:
Assay type in all cases: in vivo, Brassica napus
BN02 (wild-type) = assay: Foliar spray response of whole plants, FIG. 2; details: 210 g ai/ha + 0.5% v/v Merge, 3-4 leaf stage, three weeks after treatment, line BN02
Description: (§1) In addition, B. napus plants (3-4 leaf stage) containing the double mutant were analyzed for response to treatment with imazamox compared to wild type plants. Lines BN02 (wild-type) and BnCL131A1 (AHAS III A122T:S653N, double mutant) were treated with either 210 g ai/ha imazamox supplemented with 0.5% v/v Merge by foliar spray or left unsprayed as checks. FIG. 2 provides the results for plants BN02 (top row) and BnCL131A1 (bottom row).

[1] = tested on: BnCL131A1 (AHAS III A122T:S653N, double mutant); assay: Foliar spray response of whole plants, FIG. 2; details: 210 g ai/ha + 0.5% v/v Merge, 3-4 leaf stage, three weeks after treatment, line BnCL131A1
Description: as §1

[2] = tested on: AHASL1A-S653N, S653N (Ho); details: 18 Days After Treatment, line AHASL1A-S653N; for Mean Percent Crop Phytotoxicity (% Crop Injury): field, 2-4 leaf stage
Text: (§2) Hand-crossed hybrids were produced in the greenhouse between two IMI-tolerant spring Brassica napus parental lines: “BnCL131A1” (homozygous for the A genome IMI-tolerant mutation AHASL1A-A122(At)T-S653(At)N) and “PM1PM2” (homozygous for the A genome AHAS-inhibitor tolerant mutation AHASL1A-W574(At)L (PM2) plus the C genome AHAS-inhibitor tolerant mutation AHASL1C-S653(At)N(PM1)). The resulting heterozygous hand-crossed hybrid line, “PM1PM2/BnCL131A 1” (heterozygous for the stacked mutations: AHASL1A-A122(At)T-S653(At)N, AHASL1A-W574(At)L (PM2), AHASL1C-S653(At)N(PM1)) was field tested together with lines each containing only one AHAS-inhibitor tolerant mutation (homozygous or heterozygous) and several spring Brassica napus checks.
(§3) The three repetition trial was conducted in Simcoe, N. Dak., and used a randomized split block design. The trial was designed to measure the percent phytotoxicity (% crop injury) of the different entries under 5 different imidazolinone herbicide treatment rates. Plants were sprayed at the 2-4 leaf stage at a volume of 100 liters/ha. The imidazolinone herbicide rates used were as follows (Imazamox=BEYOND™ 120 g/I LC (BAS 72001H); NIS=INDUCE™ 90 (90% non-ionic surfactant; Helena Chemical Co., Collierville, Tenn.):
(§4) Crop Injury Ratings were determined in the field by assessing each plot in the trial for the level of phytotoxicity (percent crop injury) on a scale from 0-100% at 18 days after treatment. Mean values for each entry across the three replications along with their statistical significance (ANOVA) are presented in Table 6 (Ho=homozygous; He=heterozygous). Each value presented in Table 6 is the mean of three replications.
(§5) The percent phytotoxicity (% crop injury) ratings were transposed into Herbicide Tolerance ratings by subtracting the percent crop injury rating (Table 6) for each line from 100% to obtain the percent herbicide tolerance (Table 7) (Ho=homozygous; He=heterozygous).

[3] = tested on: BnCL131A1 (He), A122T-S653N (He); details: 18 Days After Treatment, line BnCL131A1 (He); for Mean Percent Crop Phytotoxicity (% Crop Injury): field, 2-4 leaf stage
Text: as §2, §3, §4, §5

[4] = tested on: BnCL131A1 (Ho), A122T-S653N (Ho); details: 18 Days After Treatment, line BnCL131A1 (Ho); for Mean Percent Crop Phytotoxicity (% Crop Injury): field, 2-4 leaf stage
Text: as §2, §3, §4, §5

[5] = tested on: PM1PM2/BnCL131A1, S653N (He), W574L (He)/A122T-S653N (He); details: for Mean Percent Crop Phytotoxicity (% Crop Injury): field, 2-4 leaf stage; for Expected Additive % Herbicide Tolerance: sum of BnCL131A1 (He) + PM2 (AHASL1A-PM2) + PM1 (AHASL1C-PM1)
Text: as §2, §3, §4, §5

[6] = tested on: PM2 (AHASL1A-PM2), W574L (Ho); details: 18 Days After Treatment, line PM2 (AHASL1A-PM2); for Mean Percent Crop Phytotoxicity (% Crop Injury): field, 2-4 leaf stage
Text: as §2, §3, §4, §5

[7] = mean over 0, 35, 70, 140, 210 g ai/ha (N 15)

## COCc1cnc(C2=NC(C)(C(C)C)C(=O)N2)c(C(=O)O)c1 (stereo not drawn) [imazamox]
BN02 (wild-type)
  response to treatment with imazamox (tolerance): nearly non-tolerant
[1]
  response to treatment with imazamox (tolerance): almost completely tolerant
[2]; 70 g ai/ha + 0.25% (v/v) NIS
  Mean Percent Crop Phytotoxicity (% Crop Injury): 78.33%
[2]; 70 g ai/ha
  Mean Percent Herbicide Tolerance (100% minus percent crop injury): 21.7%
[2]; 210 g ai/ha + 0.25% (v/v) NIS
  Mean Percent Crop Phytotoxicity (% Crop Injury): 90%
[2]; 210 g ai/ha
  Mean Percent Herbicide Tolerance (100% minus percent crop injury): 10.0%
[2]; [7]
  Mean Percent Crop Phytotoxicity (% Crop Injury), Mean over rates: 64.33%
[3]; 35 g ai/ha + 0.25% (v/v) NIS
  Mean Percent Crop Phytotoxicity (% Crop Injury): 33.33%
[3]; 35 g ai/ha
  Mean Percent Herbicide Tolerance (100% minus percent crop injury): 66.7%
[3]; 70 g ai/ha + 0.25% (v/v) NIS
  Mean Percent Crop Phytotoxicity (% Crop Injury): 60%
[3]; 70 g ai/ha
  Mean Percent Herbicide Tolerance (100% minus percent crop injury): 40.0%
[3]; 140 g ai/ha + 0.25% (v/v) NIS
  Mean Percent Crop Phytotoxicity (% Crop Injury): 80%
[3]; 140 g ai/ha
  Mean Percent Herbicide Tolerance (100% minus percent crop injury): 20.0%
[3]; 210 g ai/ha + 0.25% (v/v) NIS
  Mean Percent Crop Phytotoxicity (% Crop Injury): 73.33%
[3]; 210 g ai/ha
  Mean Percent Herbicide Tolerance (100% minus percent crop injury): 26.7%
[3]; [7]
  Mean Percent Crop Phytotoxicity (% Crop Injury), Mean over rates: 49.33%
[4]; 35 g ai/ha + 0.25% (v/v) NIS
  Mean Percent Crop Phytotoxicity (% Crop Injury): 16.67%
[4]; 35 g ai/ha
  Mean Percent Herbicide Tolerance (100% minus percent crop injury): 83.3%
[4]; 70 g ai/ha + 0.25% (v/v) NIS
  Mean Percent Crop Phytotoxicity (% Crop Injury): 31.67%
[4]; 70 g ai/ha
  Mean Percent Herbicide Tolerance (100% minus percent crop injury): 68.3%
[4]; 140 g ai/ha + 0.25% (v/v) NIS
  Mean Percent Crop Phytotoxicity (% Crop Injury): 43.33%
[4]; 140 g ai/ha
  Mean Percent Herbicide Tolerance (100% minus percent crop injury): 56.7%
[4]; 210 g ai/ha + 0.25% (v/v) NIS
  Mean Percent Crop Phytotoxicity (% Crop Injury): 55%
[4]; 210 g ai/ha
  Mean Percent Herbicide Tolerance (100% minus percent crop injury): 45.0%
[4]; [7]
  Mean Percent Crop Phytotoxicity (% Crop Injury), Mean over rates: 29.33%
[5]; 35 g ai/ha + 0.25% (v/v) NIS, 18 Days After Treatment, line PM1PM2/BnCL131A1
  Mean Percent Crop Phytotoxicity (% Crop Injury): 8.33%
[5]; 35 g ai/ha, 18 Days After Treatment, line PM1PM2/BnCL131A1
  Mean Percent Herbicide Tolerance (100% minus percent crop injury): 91.7%
[5]; 70 g ai/ha + 0.25% (v/v) NIS, 18 Days After Treatment, line PM1PM2/BnCL131A1
  Mean Percent Crop Phytotoxicity (% Crop Injury): 15%
[5]; 70 g ai/ha, 18 Days After Treatment, line PM1PM2/BnCL131A1
  Mean Percent Herbicide Tolerance (100% minus percent crop injury): 85.0%
[5]; 140 g ai/ha + 0.25% (v/v) NIS, 18 Days After Treatment, line PM1PM2/BnCL131A1
  Mean Percent Crop Phytotoxicity (% Crop Injury): 21.67%
[5]; 140 g ai/ha, 18 Days After Treatment, line PM1PM2/BnCL131A1
  Mean Percent Herbicide Tolerance (100% minus percent crop injury): 78.3%
[5]; 140 g ai/ha
  Expected Additive % Herbicide Tolerance: 45%
[5]; 140 g ai/ha, listed as Beyond
  Expected Additive % Herbicide Tolerance: 45.0%
[5]; 210 g ai/ha + 0.25% (v/v) NIS, 18 Days After Treatment, line PM1PM2/BnCL131A1
  Mean Percent Crop Phytotoxicity (% Crop Injury): 15%
[5]; 210 g ai/ha, 18 Days After Treatment, line PM1PM2/BnCL131A1
  Mean Percent Herbicide Tolerance (100% minus percent crop injury): 85%
[5]; 210 g ai/ha, 18 Days After Treatment, line PM1PM2/BnCL131A1, listed as Beyond
  Mean Percent Herbicide Tolerance (100% minus percent crop injury): 85.0%
[5]; 210 g ai/ha
  Expected Additive % Herbicide Tolerance: 55%
[5]; 210 g ai/ha, listed as Beyond
  Expected Additive % Herbicide Tolerance: 55.0%
[5]; mean over 0, 35, 70, 140, 210 g ai/ha (N 15), 18 Days After Treatment, line PM1PM2/BnCL131A1
  Mean Percent Crop Phytotoxicity (% Crop Injury), Mean over rates: 12%
[6]; 35 g ai/ha + 0.25% (v/v) NIS
  Mean Percent Crop Phytotoxicity (% Crop Injury): 36.67%
[6]; 35 g ai/ha
  Mean Percent Herbicide Tolerance (100% minus percent crop injury): 63.3%
[6]; 70 g ai/ha + 0.25% (v/v) NIS
  Mean Percent Crop Phytotoxicity (% Crop Injury): 46.67%
[6]; 70 g ai/ha
  Mean Percent Herbicide Tolerance (100% minus percent crop injury): 53.3%
[6]; 140 g ai/ha + 0.25% (v/v) NIS
  Mean Percent Crop Phytotoxicity (% Crop Injury): 83.33%
[6]; 140 g ai/ha
  Mean Percent Herbicide Tolerance (100% minus percent crop injury): 16.7%
[6]; 210 g ai/ha + 0.25% (v/v) NIS
  Mean Percent Crop Phytotoxicity (% Crop Injury): 80%
[6]; 210 g ai/ha
  Mean Percent Herbicide Tolerance (100% minus percent crop injury): 20.0%
[6]; [7]
  Mean Percent Crop Phytotoxicity (% Crop Injury), Mean over rates: 49.33%
